Reference: patent US10766855B2, “Hydroxamate triterpenoid derivatives” (VIVACELL BIOTECHNOLOGY ESPANA S.L., priority 2016, dated 2020)

Assays:
[1] = test system: STHdhQ7/Q7 and STHdhQ111/Q111 striatal cells; assay: 3-NP-induced cytotoxicity in striatal Q7 and Q111 cells (YOYO-1); format: cell-based, mouse; conditions: 6 h pre-treatment, 3-NP 10 mM 24 h; compound VII increasing concentrations, DFX 50 μM
Method: FIG. 8. Compound VII abrogates 3-NP toxicity in Q7 and […] striatal cells. Q7 and Q111 Striatal cells were pretreated with increasing concentrations of compound VII for 6 h and then exposed to 3-NP (10 mM) for an additional 24 h, after which YOYO-1 staining was used to investigate cell death. Cell death was determined using the IncuCyte HD software and the treatment with 3-NP alone in Q111 cells was considered as 100% of cell death.
To investigate whether HIF activation in striatal Q7 and Q111 cells is sufficient to protect striatal neurons (provide neuroprotection), the effect of compound VII on 3-NP induced death was examined. […]
STHdh^Q7/Q7 and STHdh^Q111/Q111 cells (10^4 cells/well in 96-well plates) were incubated with YOYO-1 (Life Technologies) and then treated with 3-NP (10 mM) and or DFX (50 μM) as a positive control for PHDs inhibition. […] The uptake of YOYO-1 by damaged cells correlates with the increase in YOYO-1 fluorescence. Treated cells are placed in an Incucyte FLR imaging system, and the YOYO-1 fluorescence is measured after 24 h of 3-NP treatment. Following the incubation period object counting analysis was performed using the Incucyte FLR software to calculate the total number of YOYO-1 fluorescence positive cells and total DNA containing objects (end point). […]

HIF-1α = HIF-1α transactivation assay in NIH-3T3-EPO-Luc fibroblast cells; format: cell-based; conditions: for Efficacy HIF-1α (IRA coefficient) / EC50: 6 h stimulation; for Efficacy HIF-1α (IRA coefficient): relative to 150 μM DFX; for EC50: Fibroblast, read-out: Potency EC50 HIF-1α
Method: To investigate the biological activities of the different compounds, HIF-1α transactivation assays were performed either in NIH-3T3-EPO-Luc cells (Table II) or in HaCaT-EPO-luc cells (FIG. 2). The NIH3T3-EPO-luc and HaCaT-EPO-luc cells have been stably transfected with the plasmid Epo-Luc plasmid. The EPO-Hypoxia Response Element (HRE)-luciferase reporter plasmid contains three copies of the HRE consensus sequence from the promoter of the erythropoietin gene fused to the luciferase gene. NIH3T3-EPO-luc cells were maintained at 37° C. in a humidified atmosphere containing 5% CO2 in DMEM supplemented with 10% fetal calf serum (FBS), and 1% (v/v) penicillin/streptomycin. DFX was purchased from Sigma-Aldrich (USA). Cells (1×10^4/well in 96 well plates) were seeded the day before the assay. […] After six hours of stimulation the cells were lysed in 25 mM Tris-phosphate pH 7.8, 8 mM MgCl2, 1 mM DTT, 1% Triton X-100, and 7% glycerol during 15 min at RT in a horizontal shaker. Luciferase activity is measured using a microplate luminometer (Berthold) following the instructions of the luciferase assay kit (Promega, Madison, Wis., USA).

NF-κB = NF-κB inhibition in NIH-3T3-KBF-Luc cells stimulated with TNFα; format: cell-based; conditions: TNFα 30 ng/ml, 6 h
Method: To further study the target selectivity of the compounds described in the present invention the effect of the natural triterpenoids (OA; BA, UA, and MA), compounds II to XV of Formula (I) disclosed in present invention, and of comparative compound CDDO-Me on NF-κB inhibition, STAT-3 inhibition, Nrf2 activation and TGR5 activation was analyzed. For this study cell lines NIH-3T3-KBF-Luc, HeLa-STAT3-Luc, HaCaT-ARE-Luc and CHO-TGR5-CRE-luc were used respectively. The NIH3T3-KBF-Luc cell line stably transfected with the plasmid KBF-Luc plasmid, which contains three copies of NF-κB binding site (from major histocompatibility complex promoter), fused to a minimal simian virus 40 promoter driving the luciferase gene. Cells (1×10^4/well) were seeded in 96-well plates, treated with increasing concentrations of the compounds II to XV for 15 min and then stimulated with 30 ng/ml TNFα. After 6 h the luciferase activity in the cell lysates was measured as indicated above.

STAT3 = STAT3 inhibition in HeLa-STAT3-Luc cells stimulated with IFN-γ; format: cell-based; conditions: IFN-γ 25 IU/ml, 6 h
Method: (§1) The HeLa-STAT3-luc cells stably transfected with the plasmid 4×M67 pTATA TK-Luc. Cells (20×10^3 cells/ml) were seeded in 96-well plates, treated with increasing concentrations of the compounds II to XIV, and of comparative compound CDDO-Me, for 15 min and then stimulated with IFN-γ 25 IU/ml. After 6 h the luciferase activity in the cell lysates was measured as indicated above. […] The HaCaT-ARE-Luc cell line contains the Nqo1 Antioxidant Response Element (ARE)-Luc reporter plasmid. ARE is activated by all members of the CNC family of factors (Nrf1, Nrf2, Nrf3 and p45 NF-E2). The cells were cultivated in 96-well plates at the concentration of 25×10^3 cells/well in a CO2 incubator at 37° C. For induction of Nrf2 activation the cells were treated with increasing concentrations of the compounds II to XV, and of comparative compound CDDO-Me, for 6 h. As a positive control the cells were treated with 0.02 mM of the antioxidant Tert-butyl-hydroquinone (TBHQ). Luciferase activity in the cell lysates was measured as indicated above and the EC50 calculated (Table III). The CHO-TGR5-CRE-Luc cells stably transfected with the pTGR5 and CRE-Luc. The CRE-responsive luciferase construct encodes the firefly luciferase reporter gene under the control of a minimal (m)CMV promoter and tandem repeats of the CRE transcriptional response element (TRE) and is useful to monitor cAMP signaling pathways activated by TGR5 agonists. Cells (1×10^4/well) were seeded in 96-well plates, treated with increasing concentrations of the compounds II to XV and CDDO-Me, for 6 h. As a positive control the cells were treated with 10 μM of LCA (lithocholic acid). Luciferase activity in the cell lysates was measured as indicated above and the EC50 calculated (Table III).

Nrf2 [2] = assay: Nrf2 activation/inhibition in HaCaT-ARE-Luc cells; format: cell-based; conditions: 6 h
Method: as §1

TGR5 = TGR5 activation in CHO-TGR5-CRE-Luc cells; format: cell-based; conditions: for EC50: 6 h
Method: The CHO-TGR5-CRE-Luc cells stably transfected with the pTGR5 and CRE-Luc. […] As a positive control the cells were treated with 10 μM of LCA (lithocholic acid). Luciferase activity in the cell lysates was measured as indicated above and the EC50 calculated (Table III).

Nrf2 [3] = assay: Nrf2 activation/inhibition in HaCaT-ARE-Luc cells; format: cell-based

Structure (SMILES) | neuroprotection to 3-NP-induced cytotoxicity (cell death) [1] | Efficacy HIF-1α (IRA coefficient) (HIF-1α) | EC50 (HIF-1α) [µM] | IC50 (NF-κB) [µM] | IC50 (STAT3) [µM] | EC50 (Nrf2 [2]) [µM] | agonistic TGR5 activity (in words) (TGR5) | EC50 (TGR5) [µM] | IC50 (Nrf2 [3]) [µM] | activation of the EPO promoter as a surrogate marker of HIF-1α pathway activation (in words) (HIF-1α)
CC(=O)N(O)CCCCCNC(=O)CCC(=O)N(O)CCCCCNC(=O)CCC(=O)N(O)CCCCCN [DFX, desferrioxamine, reference compound] | also protected the cells from the cytotoxic activity of 3-NP |  |  |  |  |  |  |  |  | 
C=C(C)[C@@H]1CC[C@]2(C(=O)NO)CC[C@]3(C)[C@H](CC[C@@H]4[C@@]5(C)Cc6cnoc6C(C)(C)[C@@H]5CC[C@]43C)[C@@H]12 [Compound VIII, Lup-2-eno[2,3-d]isoxazol-N-hydroxy-28-amide] |  | 0.55 | 2.58 | > 50 | > 50 | > 50 | showed agonistic TGR5 activity | 9.62 | > 50 | 
CC(=O)O[C@H]1CC[C@]2(C)[C@H]3C(=O)C=C4[C@@H]5CC(C)(C)CC[C@]5(C(=O)NO)CC[C@@]4(C)[C@]3(C)CC[C@H]2C1(C)C [Compound V, (3β) 3-Acetyloxy-11-oxo-olean-12-en-N-hydroxy-28-amide] |  | 0.16 | 6.71 | > 50 | > 50 | > 50 |  | > 50 | > 50 | 
C[C@H]1[C@H](C)CC[C@]2(C(=O)NO)CC[C@]3(C)C(=CC[C@@H]4[C@@]5(C)CC/C(=N/O)C(C)(C)C5CC[C@]43C)[C@H]12 (stereo partly drawn) [Compound XIII, 3 Hydroxyimino-N-hydroxy-urs-12-en-28-amide] |  | 0.10 | 8.93 | > 50 | > 50 | > 50 |  | > 50 | > 50 | 
CC1(C)CC[C@]2(C(=O)O)CC[C@]3(C)C(=CC[C@@H]4[C@@]5(C)CC[C@H](O)C(C)(C)[C@@H]5CC[C@]43C)[C@@H]2C1 [Oleanolic acid, reference compound] |  |  | > 50 | > 50 | > 50 | > 50 |  | […] | > 50 | None of the natural triterpenoids
